Measurements reported in patent publication US20240024320A1, “METHODS OF TREATING CANCER WITH A COMBINATION OF TUCATINIB AND AN ANTI-PD-1/ANTI-PD-L1 ANTIBODY” (Seagen Inc., priority 2020, published 2024).
“Also recorded” adds a separate entry of the source.

What was measured:
[1] = system: H2N113 tumors; format: in vivo
[2] = system: Fo5 tumors; assay: ex vivo FACS analysis of trastuzumab resistant Fo5 tumors; format: in vivo, FVB mice
Protocol: Tumors were harvested after 10-14 days of tucatinib 50 mg/kg treatment for Fo5 tumors and analyzed by FACS.
In vivo mouse studies. Female MMTV/Balb/c and FVB mice between 6 to 8 weeks of age were utilized for experiments. Treatment groups consisted of n=5 to 8 mice per group. […] Randomization and treatment commenced at approximately day 10 post-inoculation for the H2N113 tumor model with tumor sizes varying between 40 to 80 mm^3 and approximately day 14 for the Fo5 tumor model with tumor sizes varying between 60 to 120 mm^3. Tumor volumes were calculated using the equation […], where length and width refer to the larger and smaller dimensions collected at each measurement. […] Immunotherapy and isotype controls in both models were delivered on days 0, 4, 8, and 12. Tumor volumes were measured twice weekly with calipers. Survival was monitored and determined when the tumors reached an ethical limit of 1500 mm^3.
Flow cytometry analysis. For ex vivo studies, tumors were dissected, mechanically morcellated and passed through 70 μm filters. Cells were then resuspended in 30 μg/mL DNAse (Sigma-Aldrich) followed by Fc block (clone 2.4g2). Single cell suspensions were then stained with antibody cocktails for various TIL subsets. In some experiments, isolated cells were stimulated with phorbol 12-myristate 13-acetate (PMA; 50 ng/mL) and ionomycin (1 μg/mL; Sigma-Aldrich) in the presence of GolgiPlug (BD Biosciences; 1:1000) and GolgiStop (BD Biosciences; 1:1500) for 3 to 4 hours prior to flow cytometry analysis. Samples were analyzed by FACS with either Fixable Yellow or Zombie Red to discriminate viable and dead cells. BD fluorosphere counting beads were added to cocktails before running sample.

[3] = system: Fo5 tumors; assay: Fo5 trastuzumab-resistant HER2-positive murine tumor model: tumor growth and survival; format: in vivo, FVB mice
[4] = system: BT474; assay: growth inhibition assay (CellTitre-Glo), BT474; format: cell-based, human; settings: BT474, dose-dependent cell growth inhibition; FIG. 5A
[5] = system: HER2 signaling pathway; assay: Western blot for phosphor-HER2 and total HER2, Fo5 tumors; format: in vivo, FVB mice; settings: Fo5 tumors treated with tucatinib vs vehicle; FIG. 11A
[6] = system: SKBR3; assay: growth inhibition assay (CellTitre-Glo), SKBR3; format: cell-based, human; settings: SKBR3, dose-dependent cell growth inhibition; FIG. 5B
[7] = system: HER2 signaling pathway; assay: Western blot for phosphor-HER2 and total HER2, H2N113 cells; format: cell-based, murine; settings: H2N113 cells treated with tucatinib vs vehicle; FIG. 11B
[8] = target: HER2 (Homo sapiens, UniProt P04626); settings: cellular signaling assays; background statement; cited from earlier work
[9] = system: H2N113; assay: growth inhibition assay (CellTitre-Glo), H2N113; format: cell-based, murine; settings: H2N113, dose-dependent cell growth inhibition; FIG. 5C
[10] = system: H2N113 tumors; format: in vivo; remark: listed apart in the source
[11] = system: Fo5 tumors; assay: ex vivo RNA sequencing / gene expression analysis of Fo5 tumors; format: in vivo, FVB mice
Protocol: The harvested tumors were then processed for stranded polyA RNA sequencing. […] Columns represent individual tumor samples and rows are individual genes.
Genomic analysis of mouse samples. RNA was extracted from Fo5 tumors treated in vivo with tucatinib at 50 mg/kg or vehicle (methyl cellulose, 0.5%) for 10 days using TRIzol® Reagent with the PureLink® RNA Mini Kit (Invitrogen™, Thermo Fisher Scientific, Waltham, MA, USA). Quantity and integrity of the total RNA was checked using a TapeStation 2200 (Agilent Technologies) and 500 ng used for library preparation according to standard protocols (NEBNext Ultra II Directional RNA Library Prep Kit for Illumina and NEBNext Poly(A) mRNA Magnetic Isolation Module, NEB). Indexed libraries were pooled and sequenced on a NextSeq500 flowcell (Illumina) to generate 25-50 million paired-end 75 bp reads per sample. Pre-processing and quantile normalization of microarray data was performed with the AFFY package in R. From normalized RNA intensities, unbiased, differential expression analysis and a short list of gene (FDR<0.05) was generated with the LIMMA package in R. Using the differentially expressed genes, pathway and molecular function enrichment analysis was performed in MetCore GeneCo. The GSEA software for gene set enrichment analysis was used with normalized RNA intensities. The false discovery rate was set at <10%. Top gene pathways were selected based on a P-value of <0.05 and a fold change of >1.5. All analyses were performed using R version 3.5.0. Gene sets for differential expression heat maps included interferon-γ 10-gene, preliminary expanded immune 28-gene, T cell inflamed 18-gene, and T-effector 6-gene signature sets, all of which have been associated with PD-1 or PD-L1 blockade amongst a range of tumor types, including breast cancer.

[12] = Example 4, after 14 days of tucatinib treatment
[13] = Example 4, tucatinib treated tumors
[14] = tucatinib 100 mg/kg orally once daily, 14 days, FIG. 2L
[15] = Example 4, after 10 days of tucatinib, FIG. 16A-16B
[16] = Example 4, after 10 days of tucatinib, FIG. 16C-16D

HER2, sequence (P04626 23-1255): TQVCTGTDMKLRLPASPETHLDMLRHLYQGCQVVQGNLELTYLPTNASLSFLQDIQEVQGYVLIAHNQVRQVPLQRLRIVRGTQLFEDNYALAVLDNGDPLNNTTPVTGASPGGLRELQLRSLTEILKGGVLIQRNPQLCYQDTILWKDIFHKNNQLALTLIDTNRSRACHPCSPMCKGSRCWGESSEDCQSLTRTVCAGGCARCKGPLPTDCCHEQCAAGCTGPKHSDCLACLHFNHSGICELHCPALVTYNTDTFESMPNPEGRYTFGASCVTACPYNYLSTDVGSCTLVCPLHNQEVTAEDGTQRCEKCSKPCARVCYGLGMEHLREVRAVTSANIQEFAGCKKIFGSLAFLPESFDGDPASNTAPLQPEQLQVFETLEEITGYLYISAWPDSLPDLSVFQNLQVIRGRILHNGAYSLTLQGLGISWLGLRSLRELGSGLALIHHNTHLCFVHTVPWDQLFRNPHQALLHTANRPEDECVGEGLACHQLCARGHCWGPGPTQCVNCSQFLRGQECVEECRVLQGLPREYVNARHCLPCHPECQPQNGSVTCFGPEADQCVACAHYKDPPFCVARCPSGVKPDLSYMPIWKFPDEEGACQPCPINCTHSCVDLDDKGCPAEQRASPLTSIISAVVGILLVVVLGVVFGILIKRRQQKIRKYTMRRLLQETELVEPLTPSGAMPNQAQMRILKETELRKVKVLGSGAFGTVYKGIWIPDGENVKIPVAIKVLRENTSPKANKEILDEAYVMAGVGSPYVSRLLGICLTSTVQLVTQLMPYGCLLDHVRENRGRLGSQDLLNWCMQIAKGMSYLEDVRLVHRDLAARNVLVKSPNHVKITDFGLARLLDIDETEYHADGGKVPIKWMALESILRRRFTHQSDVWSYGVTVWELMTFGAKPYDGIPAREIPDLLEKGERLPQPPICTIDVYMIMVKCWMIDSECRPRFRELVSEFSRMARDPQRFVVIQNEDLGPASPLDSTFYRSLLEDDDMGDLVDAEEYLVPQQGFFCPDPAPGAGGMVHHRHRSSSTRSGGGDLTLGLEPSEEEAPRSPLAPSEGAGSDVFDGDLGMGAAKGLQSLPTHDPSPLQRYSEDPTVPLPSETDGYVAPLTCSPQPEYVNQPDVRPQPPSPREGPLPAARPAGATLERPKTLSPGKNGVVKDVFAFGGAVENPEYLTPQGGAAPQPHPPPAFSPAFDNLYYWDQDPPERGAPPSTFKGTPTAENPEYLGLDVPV

In the case of `Cc1cc(Nc2ncnc3ccc(NC4=NC(C)(C)CO4)cc23)ccc1Oc1ccn2ncnc2c1` [tucatinib, N^4-(4-([1,2,4]triazolo[1,5-a]pyridin-7-yloxy)-3-methylphenyl)-N-(4,4-dimethyl-4,5-dihydrooxazol-2-yl) quinazoline-4,6-diamine], the “CD8+ effector memory (CD44+CD62L−) T cell frequency as a percentage of total CD8+” value [1, 12] was “increased”, the “PD-1+ expression of CD8+ effector memory T cells” value [1, 12] was “significantly higher” and the “TIM3+ expression of CD8+ effector memory T cells” value [1, 12] was “significantly higher”. For the same molecule, the “CD8+ proportion” value ([1]; Example 4, after 14 days of tucatinib treatment vs vehicle) was “increased”, the “expression of Ki67 in CD8+ effector memory T cells” value ([1]; Example 4, day 14, FIG. 13A) was “increased expression” and the “interferon-7 expression in CD8+ effector memory T cells compared to vehicle treated controls” value ([1]; Example 4, day 14, FIG. 13B) was “significantly greater”. The “CD49b+ natural killer cell population proportion of CD45+CD3− lymphocytes” value ([1]; Example 4, day 14, FIG. 14) was “significantly increased”, the “CD103+ dendritic cells” value [1, 13] was “significant increase” and the “MHC II+ macrophages” value [1, 13] was “significant increase”. For the same molecule, the “granulocytic MDSC as proportion of CD45.2+ lymphocytes” value [1, 13] was “significant decrease”, the “neutrophils (CD11c-F4/80-CD11b+Ly6G+Ly6C+) as proportion of CD45.2+ lymphocytes” value [1, 13] was “significant decrease” and the “suppressive MHC II low macrophages as proportion of CD45.2+ lymphocytes” value [1, 13] was “significant decrease”. The “PD-L1 expression on CD45+ cells (total TILs)” value ([1]; Example 4, tucatinib vs vehicle treated TILs, FIG. 15A-15B) was “increased intensity”, the “infiltration of natural killer (NK) cells in the tumor” value ([1]; tucatinib 100 mg/kg orally once daily, 14 days) was “increase” and the “infiltration of CD8+ T cells in the tumor” value ([1]; tucatinib 100 mg/kg orally once daily, 14 days, vs vehicle, FIG. 2A) was “increase”. The “infiltration of CD4+ T cells not expressing FOXP3 in the tumor” value ([1]; tucatinib 100 mg/kg orally once daily, 14 days, FIG. 2B) was “increase”, the “infiltration of CD4+ T cells expressing FOXP3 in the tumor” value ([1]; tucatinib 100 mg/kg orally once daily, 14 days, FIG. 2C) was “increase” and the “infiltration of CD8+ T cells expressing Ki67 in the tumor” value ([1]; tucatinib 100 mg/kg orally once daily, 14 days, FIG. 2D) was “increase”. The “infiltration of CD8+ T cells expressing IFNγ in the tumor” value ([1]; tucatinib 100 mg/kg orally once daily, 14 days, FIG. 2E) was “increase”, the “infiltration of CD8+ T cells expressing PD-1 in the tumor” value ([1]; tucatinib 100 mg/kg orally once daily, 14 days, FIG. 2F) was “increase” and the “infiltration of CD8+ T cells expressing OX40 in the tumor” value ([1]; tucatinib 100 mg/kg orally once daily, 14 days, FIG. 2G) was “increase”. For the same molecule, the “infiltration of CD8+ T cells expressing TIM3 in the tumor” value ([1]; tucatinib 100 mg/kg orally once daily, 14 days, FIG. 2H) was “increase”, the “infiltration of neutrophils in the tumor” value ([1]; tucatinib 100 mg/kg orally once daily, 14 days, FIG. 2J) was “decrease” and the “percentage of CD11 b dendritic cells in the tumor” value ([1]; tucatinib 100 mg/kg orally once daily, 14 days, FIG. 2K) was “increase”. For the same molecule, the “percentage of MHC-II high in the tumor” value [1, 14] was “increase”, the “percentage of MHC-II low in the tumor” value [1, 14] was “decrease” and the “interferon-7 expression in CD4+ effector memory T cell subset” value [2, 15] was “increased”. The “interferon-7 expression in CD8+ effector memory T cell subset” value [2, 15] was “increased”, the “PD-1+ expression in CD8+ effector memory T cells” value [2, 16] was “increased” and the “granzyme B expression in CD8+ effector memory T cells” value [2, 16] was “increased”. The “infiltration of CD8+ T cells expressing PD-1 in the tumor” value ([2]; tucatinib 50 mg/kg orally once daily, 10-14 days, vs vehicle, FIG. 1A) was “increase”, the “infiltration of CD8+ T cells expressing IFNγ in the tumor” value ([2]; tucatinib 50 mg/kg orally once daily, 10-14 days, vs vehicle, FIG. 1B) was “increase” and the “infiltration of CD8+ T cells expressing FOXP3 in the tumor” value ([2]; tucatinib 50 mg/kg orally once daily, 10-14 days, vs vehicle, FIG. 1C) was “increase”. The “CD4+ to CD8+ T cell ratio in the tumor” value ([2]; tucatinib 50 mg/kg orally once daily, 10-14 days, vs vehicle, FIG. 1D) was “moderate increase”, the tumor growth ([3]; tucatinib 25, 50, 100 mg/kg orally once daily vs vehicle, p<0.05) was “significantly inhibited tumor growth in a dose-dependent manner; also recorded: significant dose-dependent tumor growth inhibition” and the survival ([3]; tucatinib at increasing doses vs vehicle, FIG. 9B) was “improved survival”. For the same molecule, the “GI50 at 72 hours” value [4] was “nanomolar range”, the “HER2 signaling pathway (phosphor-HER2 and total HER2)” value [5] was “Inhibition of the HER2 signaling pathway” and the “GI50 at 72 hours” value [6] was “nanomolar range”. The “HER2 signaling pathway (phosphor-HER2 and total HER2)” value [7] was “Inhibition of the HER2 signaling pathway”, the “selectivity for HER2 compared to the closely related kinase EGFR” value [8] was > 1000 fold and the “GI50 at 72 hours” value [9] was “nanomolar range”. For the same molecule, the tumor growth ([10]; tucatinib at increasing doses by oral gavage vs vehicle) was “significant dose-dependent tumor growth inhibition”, the survival ([10]; tucatinib at increasing doses vs vehicle, FIG. 8B) was “improved survival” and the “genes associated with favorable clinical response to checkpoint inhibitors” value ([11]; day 10 post treatment, differential gene expression, FIG. 21A-21D) was “upregulation”. For the same molecule, the “genes related to immune cell function” value ([11]; day 10 post treatment, tucatinib 50 mg/kg vs vehicle, FIG. 17, 18A-18B) was “significant upregulation”, the “genes related to antigen presentation” value ([11]; day 10 post treatment, tucatinib 50 mg/kg vs vehicle, FIG. 19, 20A-20B) was “significant upregulation” and the “expression of genes predictive of response to immunotherapy (IFNγ-related gene expression signature, expanded immune signature)” value ([11]; stranded polyA RNA sequencing, tucatinib vs vehicle, FIG. 3A, 3B) was “increased expression”.
